Laboratory results taken from paper PMC4467816 (EJNMMI Research, 2015).

How the values were obtained:
[1] = target: T1, hNET expressing membranes (Homo sapiens, UniProt P23975); assay: Harvesting experiments with [11C]Me@HAPTHI on hNET expressing membranes; format: binding; details: cold competitor 1-1000 nM, n ≥ 3 triplicates
T1 construct: purchased Perkin Elmer RBHNETM400AU

NET [2] = target: T2, NET (Rattus norvegicus, UniProt Q63380); assay: In vitro autoradiography with [11C]Me@HAPTHI, rat heart slices, competition; format: binding; details: for % BL-competitor: [11C]Me@HAPTHI binding, BL = baseline; for fmol (calculated relative concentration of transporter protein): limit of detection 0.01 fmol
T2 construct: Wild-type male rats were deeply anesthesized by isoflurane and sacrificed by decapitation; The organs of interest (i.e. brain, heart and testis) were removed; from tissue; host or cells: rat heart, 10 µm cryo-slices
Method: (§1) In vitro autoradiography was performed with slight modifications according to previously published protocols. Non-specific binding was determined by co-incubation with excess Nisoxetine (10 μM). […] After 1 h at room temperature, incubation was stopped and slices were processed on phosphor imaging films.
(§2) All data was exported to Microsoft Excel for statistical analysis, and the percentage of total specific binding was calculated.
(§3) A buffer for pre-incubation (50 mM TRIS HCl in aqua dest., pH 7.4) and a buffer for the experiment (50 mM TRIS HCl, pH 7.4, 300 mM NaCl, 5 mM KCl, 0.1%w/v ascorbic acid in aqua dest.) were prepared the day before the experiment and stored at 4 °C.
(§4) Tissue sections were allowed to thaw to RT upon thorough vanishing of condense water residues (5-10min). Subsequently, the slices were pre-incubated with the respective buffer at RT for 30 min in a Coplin jar. Slices were taken out of the jar and the buffer residues were removed.
(§5) Non-specific binding was determined by co-incubation with excess Nisoxetine (10 µM). […] To the naïve incubation solution (baseline), a vehicle containing acetonitrile was added in the same concentration as used for the dissolution of the competitors (i.e. 0.3% acetonitrile in the final incubation solution).
(§6) After 1 h the incubation was stopped and the slices were washed twice for 5 min in a jar with ice-cold incubation buffer. Finally, the tissue slides were washed with ice-cold water to remove all residual salts and dried under a smooth air stream. Subsequently, the dry tissue slices were placed on Phosphor-Imager films in a lead shielded cassette for an exposure time of 12 h. Following the analysis of the films with a Cyclone Phosphor Imager, regions of interest (ROI) were analyzed using OptiQuant® software. The signal obtained (digital light units/mm2=DLU/mm^2) was proportional to the radioactivity on the film. Using a calibration curve for each experiment, DLUs were converted into kBq/mm^2. Furthermore, for calculation of NET-density, kBq were converted into fmol by taking into account the specific activity of the radiotracer preparations. All data was exported to Microsoft Excel for statistical analysis and the percentage of total specific binding was calculated.

NET [3] = target: T3, NET (Homo sapiens, UniProt P23975); assay: In vitro autoradiography with [11C]Me@HAPTHI, human brain slices, competition; format: binding; details: human nucleus caudatus
T3 construct: The human postmortem tissue (7–9 h postmortem time, no history of neurological diseases) was obtained from the Neurobiobank; from tissue; host or cells: post-mortem human brain (cortex, thalamus, hippocampus, cerebellum, hypothalamus, nucleus caudatus), 10 µm cryo-slices

NET [4] = target: T3, NET; assay: as above; format: binding
Method: Human brain tissue (cortex, thalamus, hippocampus, cerebellum and hypothalamus) was obtained deeply frozen from the Neurobiobank of the Medical University Vienna and was stored at −80 °C. Before cutting, tissue blocks were thawed slowly within 12 h to −20 °C. The organs were cut at −20 °C in a micro-cryotome into 10-μm-thick slices and thaw mounted onto object slides. Slices were again stored at −80 °C until the beginning of the experiment.
as §1, §2
Human brain tissue (cortex, thalamus, hippocampus, cerebellum, and hypothalamus) was obtained deeply frozen from the Neuro-Biobank of the Medical University Vienna. Upon cutting, all tissue was stored at -80 °C. Before cutting, tissue blocks were thawed slowly within 12 h to -20 °C. The organs were cut at -20°C in a micro-cryotome into 10 µm thick slices and thaw mounted onto object slides. Until the beginning of the experiment, slices were stored at -80°C.
as §3, §4, §5, §6

[5] = HPLC-based logD analysis (ODP-50 column); format: physicochemical; details: for chromatographic logD: HPLC on polymeric ODP-50 column, methanol/phosphate buffer, pH 7.4, HPLC method
Method: LogD values were assessed using a HPLC-based protocol according to Donovan and Pescatore. All compounds (as cold reference standards) were injected together with two known compounds—with known logD and k′ values—according to a standard protocol. A polymeric ODP-50 column was used; a linear gradient from 10 % MeOH 90 % 25 mM phosphate buffer (pH 7.4) to 100 % methanol within 9.4 min at a flow-rate of 1.5 mL/min was applied. Internal standards were triphenylene and toluene; detection was performed at 260 and 285 nm.

human SERT membranes = target: T4, human SERT membranes (Homo sapiens, UniProt P31645); assay: SERT-expressing membrane binding (selectivity); details: n ≥ 5 triplicates, read-out: affinity towards SERT
T4 construct: purchased Perkin Elmer RBHSTM400UA
Method: (§7) IC50 and Ki values were obtained in analogy to NET experiments. Ratios DAT/NET and SERT/NET were determined.
as §7

human DAT membranes = target: T5, human DAT membranes (Homo sapiens, UniProt Q01959); assay: DAT-expressing membrane binding (selectivity); details: n ≥ 5 triplicates, read-out: affinity for DAT
T5 construct: purchased Perkin Elmer RBHDATM400UA
Method: as §7, §7

human NET membranes = target: T6, human NET membranes (Homo sapiens, UniProt P23975); assay: NET-expressing membrane competitive binding ([3H]nisoxetine); details: n ≥ 9 triplicates; cold reference compounds; read-out: Kd (affinity, human NET membranes)
T6 construct: purchased Perkin Elmer RBHNETM400AU
Method: The affinity of new radiolabelled ligand was determined in a NET-expressing membrane binding protocol [26, 27].
Data from the competition plots (as arithmetic means of values derived from three different assays, each in triplicate for each compound) were analyzed and subsequently IC50 and Ki values were calculated using GraphPad Prism® software (San Diego, USA).
The affinity of new radiolabeled ligand was determined in a NET-expressing membrane binding protocol [3-5]. […] After incubation time, binding was quenched with ice cold buffer, and membrane bound radioactivity was recovered by rapid vacuum filtration through GF/C glass fiber filters (Whatman® Inc., Clifton, USA) presoaked in assay buffer containing 0.3% polyethylene imine (PEI). […] After addition of a β-scintillation cocktail (2 mL Ultima Gold^TM, biodegradeable, Perkin Elmer), the tubes were shaken for 20 min and then counted. Data from the competition plots (as arithmetic means of values derived from three different assays, each in triplicate for each compound) were analyzed and subsequently IC50 and Ki values were calculated using GraphPad Prism® software (San Diego, USA).

[6] = Plasma free fraction by ultrafiltration; format: in vitro ADME, human; details: binding to filter matrix of Centrifree vials, phosphate buffer pH 7.4
Method: For the determination of free fraction in human pooled plasma, an ultrafiltration protocol according to previously published methods was used. […] For a detailed method, see Additional file 1.
After incubation for 20 min at room temperature, the Centrifree vials were centrifuged for 50 minutes at 1800g. Subsequently, an aliquot of 50 µL of the ultrafiltrate was taken and measured in the γ-counter. The plasma free fraction was subsequently calculated as the ratio of the ultrafiltrate activity to the total plasma activity. […] The final free fraction value was corrected for this unspecific filter binding.

[7] = human cortex, competitor 100 nM
[8] = human hippocampus, competitor 100 nM
[9] = human hippocampus, competitor 1 μM
[10] = human hypothalamus, competitor 100 nM
[11] = human hypothalamus, competitor 1 μM
[12] = human thalamus, competitor 100 nM
[13] = human thalamus, competitor 1 μM

T2 sequence (Q63380 1-617): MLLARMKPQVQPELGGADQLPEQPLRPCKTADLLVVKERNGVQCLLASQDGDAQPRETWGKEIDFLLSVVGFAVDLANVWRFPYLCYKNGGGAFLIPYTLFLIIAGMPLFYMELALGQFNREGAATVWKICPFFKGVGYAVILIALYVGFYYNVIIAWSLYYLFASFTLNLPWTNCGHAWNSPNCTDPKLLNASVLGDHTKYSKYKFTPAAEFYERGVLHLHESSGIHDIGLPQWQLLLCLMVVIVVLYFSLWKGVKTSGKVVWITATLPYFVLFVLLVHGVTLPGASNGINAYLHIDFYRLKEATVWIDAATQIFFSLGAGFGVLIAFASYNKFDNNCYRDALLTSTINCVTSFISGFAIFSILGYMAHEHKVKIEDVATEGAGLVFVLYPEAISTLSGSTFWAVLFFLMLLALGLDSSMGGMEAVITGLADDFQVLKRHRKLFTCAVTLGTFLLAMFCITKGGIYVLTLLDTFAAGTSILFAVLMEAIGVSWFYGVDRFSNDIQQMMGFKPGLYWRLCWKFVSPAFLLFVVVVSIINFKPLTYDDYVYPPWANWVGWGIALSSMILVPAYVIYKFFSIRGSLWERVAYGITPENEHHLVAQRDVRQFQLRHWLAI
T3 sequence (P23975 whole entry): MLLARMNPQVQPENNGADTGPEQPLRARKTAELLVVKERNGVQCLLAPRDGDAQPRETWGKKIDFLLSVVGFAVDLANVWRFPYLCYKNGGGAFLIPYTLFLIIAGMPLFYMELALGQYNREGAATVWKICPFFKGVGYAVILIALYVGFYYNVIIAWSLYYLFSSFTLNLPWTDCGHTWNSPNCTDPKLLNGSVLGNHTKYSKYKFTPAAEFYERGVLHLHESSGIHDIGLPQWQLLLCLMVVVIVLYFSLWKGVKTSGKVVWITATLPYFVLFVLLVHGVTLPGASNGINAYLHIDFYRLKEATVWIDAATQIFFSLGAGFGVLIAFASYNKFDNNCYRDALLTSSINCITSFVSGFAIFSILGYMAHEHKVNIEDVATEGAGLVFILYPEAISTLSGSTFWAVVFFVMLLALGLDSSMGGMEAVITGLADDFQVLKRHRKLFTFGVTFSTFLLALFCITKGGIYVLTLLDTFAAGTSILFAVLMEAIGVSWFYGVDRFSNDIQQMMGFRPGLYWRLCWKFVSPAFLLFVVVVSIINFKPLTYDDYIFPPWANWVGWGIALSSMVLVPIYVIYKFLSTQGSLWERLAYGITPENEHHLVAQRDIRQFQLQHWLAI
T4 sequence (P31645 whole entry): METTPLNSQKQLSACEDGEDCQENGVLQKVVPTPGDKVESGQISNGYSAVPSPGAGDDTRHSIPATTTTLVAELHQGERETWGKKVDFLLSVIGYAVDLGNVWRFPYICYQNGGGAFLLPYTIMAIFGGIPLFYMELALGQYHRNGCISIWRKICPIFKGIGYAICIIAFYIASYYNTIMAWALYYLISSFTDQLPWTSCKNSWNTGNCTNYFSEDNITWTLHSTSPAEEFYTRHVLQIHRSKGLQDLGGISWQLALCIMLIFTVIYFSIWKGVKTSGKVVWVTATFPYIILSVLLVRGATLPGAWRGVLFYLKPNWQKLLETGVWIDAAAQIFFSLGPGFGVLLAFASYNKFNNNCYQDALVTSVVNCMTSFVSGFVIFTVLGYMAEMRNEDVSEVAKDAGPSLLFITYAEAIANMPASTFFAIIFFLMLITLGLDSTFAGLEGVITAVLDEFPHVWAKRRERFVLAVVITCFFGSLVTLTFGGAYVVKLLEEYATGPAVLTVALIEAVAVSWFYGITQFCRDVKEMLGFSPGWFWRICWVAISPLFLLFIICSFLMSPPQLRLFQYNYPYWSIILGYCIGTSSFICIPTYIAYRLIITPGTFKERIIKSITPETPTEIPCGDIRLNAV
T5 sequence (Q01959 whole entry): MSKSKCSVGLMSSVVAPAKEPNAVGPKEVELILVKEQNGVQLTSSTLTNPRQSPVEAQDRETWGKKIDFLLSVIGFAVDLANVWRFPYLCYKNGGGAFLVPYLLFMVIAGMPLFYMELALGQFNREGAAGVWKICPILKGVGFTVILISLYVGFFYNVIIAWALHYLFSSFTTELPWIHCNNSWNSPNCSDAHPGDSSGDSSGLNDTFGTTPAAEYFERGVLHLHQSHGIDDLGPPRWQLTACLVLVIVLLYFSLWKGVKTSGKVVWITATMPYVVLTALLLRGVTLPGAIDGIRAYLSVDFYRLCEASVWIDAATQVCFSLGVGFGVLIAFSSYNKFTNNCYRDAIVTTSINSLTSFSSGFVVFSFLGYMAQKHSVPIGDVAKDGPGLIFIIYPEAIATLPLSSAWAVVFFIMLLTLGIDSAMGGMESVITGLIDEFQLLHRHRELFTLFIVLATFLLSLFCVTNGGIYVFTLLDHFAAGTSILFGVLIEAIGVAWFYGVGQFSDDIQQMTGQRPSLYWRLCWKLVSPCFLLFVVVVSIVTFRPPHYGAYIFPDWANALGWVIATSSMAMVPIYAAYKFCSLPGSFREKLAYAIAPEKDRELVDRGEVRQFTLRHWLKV
T6 sequence (P23975 whole entry): as the sequence (P23975 whole entry) above
T1 sequence (P23975 whole entry): as above

[2H]C([2H])(F)Oc1ccccc1OC(c1ccccc1)C1CNCCO1 (centres unmarked) [FMeNER-D2]
displacement of [11C]Me@HAPTHI [1]: concentration-dependent displacement
% BL-competitor (NET [2]; competitor 100 nM): 99.00 ± 0.07%
fmol (calculated relative concentration of transporter protein) (NET [2]; competitor 100 nM): <0.01 fmol/mm^2
% BL-competitor (NET [2]; competitor 1 μM): 88.8 ± 11.2%
fmol (calculated relative concentration of transporter protein) (NET [2]; competitor 1 μM): <0.01 fmol/mm^2
% BL-competitor (NET [3]; competitor 100 nM): 102.6 ± 14.5%
% BL-competitor (NET [3]; competitor 1 μM): 107.6 ± 17.7%
% BL-competitor (NET [4]; human cerebellum, competitor 100 nM): 103.9 ± 12.2%
% BL-competitor (NET [4]; human cerebellum, competitor 1 μM): 108.2 ± 17.3%
% BL-competitor (NET [4]; [7]): 86.3 ± 11.2 %
fmol (calculated relative concentration of transporter protein) (NET [4]; [7]): <0.01 fmol/mm^2
% BL-competitor (NET [4]; human cortex, competitor 1 μM): 71.9 ± 7.9 %
fmol (calculated relative concentration of transporter protein) (NET [4]; human cortex, competitor 1 μM): 0.86 fmol/mm^2
% BL-competitor (NET [4]; [8]): 97.1 ± 10.3%
fmol (calculated relative concentration of transporter protein) (NET [4]; [8]): <0.01 fmol/mm^2
% BL-competitor (NET [4]; [9]): 67.3 ± 8.2%
fmol (calculated relative concentration of transporter protein) (NET [4]; [9]): <0.01 fmol/mm^2
% BL-competitor (NET [4]; [10]): 97.8 ± 14.6%
fmol (calculated relative concentration of transporter protein) (NET [4]; [10]): 0.11 fmol/mm^2
% BL-competitor (NET [4]; [11]): 77.4 ± 14.5%
fmol (calculated relative concentration of transporter protein) (NET [4]; [11]): 0.02 fmol/mm^2
% BL-competitor (NET [4]; [12]): 77.6 ± 9.8%
fmol (calculated relative concentration of transporter protein) (NET [4]; [12]): 0.47 fmol/mm^2
% BL-competitor (NET [4]; [13]): 68.36 ± 2.11%
fmol (calculated relative concentration of transporter protein) (NET [4]; [13]): 0.71 fmol/mm^2
logD ([5]; HPLC method, phosphate buffer pH 7.4): 2.73

NC[C@@H](O)CCN1c2ccccc2N(c2ccccc2)S1(=O)=O [HAPTHI, (S)-1-(4-amino-3-hydroxybutyl)-3-phenyl-1,3-dihydrobenzo[c][1,2, 5]thiadiazole 2,2-dioxide]
Kd (human SERT membranes): 10.3 µM
Kd (human DAT membranes): > 10 µM
Kd (human NET membranes): 24.2 ± 10.9 nM
chromatographic logD [5]: 2.3 ± 0.01

CNC[C@@H](O)CCN1c2ccccc2N(c2ccccc2)S1(=O)=O [Me@HAPTHI, (S)-1-(3-hydroxy-4-(methylamino)butyl)-3-phenyl-1,3-dihydrobenzo[c][1,2, 5]thiadiazole 2,2-dioxide]
chromatographic logD [5]: 2.27 ± 0.01

[11CH3]NC[C@@H](O)CCN1c2ccccc2N(c2ccccc2)S1(=O)=O [[^11C]Me@HAPTHI, (S)-1-(3-hydroxy-4-([^11C]methylamino)butyl)-3-phenyl-1,3-dihydrobenzo[c][1,2, 5]thiadiazole 2,2-dioxide]
unspecific filter retention [6]: 51.26 ± 0.78%
